Assay: wn = mass fraction of the nth substance listed
Details: Liquid, Pycnometric method, w2 = 0.5111

FC(F)C(F)(F)F [pentafluoroethane] + FCF
Details	mass density [kg/m3]
268.15 K, 3423 kPa	1190.3
269.15 K, 4259 kPa	1190.1
270.15 K, 5065 kPa	1189.9
270.15 K, 5095 kPa	1189.9
270.15 K, 5157 kPa	1190.1
271.15 K, 5903 kPa	1189.7
271.15 K, 5931 kPa	1189.7
271.15 K, 5992 kPa	1189.9
272.15 K, 6740 kPa	1189.6
272.15 K, 6767 kPa	1189.5
272.15 K, 6828 kPa	1189.7
273.15 K, 7576 kPa	1189.4
273.15 K, 7602 kPa	1189.3
273.15 K, 7662 kPa	1189.5
274.15 K, 8411 kPa	1189.2
274.15 K, 8437 kPa	1189.2
274.15 K, 8496 kPa	1189.3
275.15 K, 9245 kPa	1189
275.15 K, 9272 kPa	1189
275.15 K, 9328 kPa	1189.2
276.15 K, 10082 kPa	1188.8
276.15 K, 10107 kPa	1188.8
276.15 K, 10161 kPa	1189
277.15 K, 10917 kPa	1188.6
277.15 K, 10942 kPa	1188.6
277.15 K, 10993 kPa	1188.8
278.15 K, 11753 kPa	1188.4
278.15 K, 11776 kPa	1188.4
278.15 K, 11824 kPa	1188.6
279.15 K, 12587 kPa	1188.2
279.15 K, 12611 kPa	1188.2
279.15 K, 12657 kPa	1188.4
280.15 K, 13423 kPa	1188.1
280.15 K, 13444 kPa	1188.1
280.15 K, 13488 kPa	1188.2
281.15 K, 14258 kPa	1187.9
281.15 K, 14277 kPa	1187.9
281.15 K, 14319 kPa	1188.1
282.15 K, 15091 kPa	1187.7
282.15 K, 15110 kPa	1187.7
282.15 K, 15148 kPa	1187.9
283.15 K, 15926 kPa	1187.5
283.15 K, 15943 kPa	1187.6
283.15 K, 15978 kPa	1187.7
284.15 K, 16759 kPa	1187.4
284.15 K, 16775 kPa	1187.4
284.15 K, 16808 kPa	1187.6
285.15 K, 17592 kPa	1187.2
285.15 K, 17606 kPa	1187.2
285.15 K, 17637 kPa	1187.4
286.15 K, 18423 kPa	1187.1
286.15 K, 18437 kPa	1187.1
286.15 K, 18467 kPa	1187.2
287.15 K, 19253 kPa	1186.9
287.15 K, 19268 kPa	1186.9
287.15 K, 19297 kPa	1187.1
288.15 K, 20083 kPa	1186.7
288.15 K, 20097 kPa	1186.8
288.15 K, 20124 kPa	1186.9
289.15 K, 20914 kPa	1186.6
289.15 K, 20926 kPa	1186.6
289.15 K, 20951 kPa	1186.8
290.15 K, 21743 kPa	1186.4
290.15 K, 21755 kPa	1186.5
290.15 K, 21778 kPa	1186.6
291.15 K, 22571 kPa	1186.3
291.15 K, 22583 kPa	1186.3
291.15 K, 22607 kPa	1186.5
292.15 K, 23400 kPa	1186.2
292.15 K, 23410 kPa	1186.2
292.15 K, 23433 kPa	1186.4
293.15 K, 24226 kPa	1186
293.15 K, 24236 kPa	1186
293.15 K, 24257 kPa	1186.2
294.15 K, 25053 kPa	1185.9
294.15 K, 25062 kPa	1185.9
294.15 K, 25082 kPa	1186.1
295.15 K, 25878 kPa	1185.7
295.15 K, 25887 kPa	1185.7
295.15 K, 25903 kPa	1185.9
296.15 K, 5585 kPa	1097.9
296.15 K, 5620 kPa	1097.9
296.15 K, 5667 kPa	1097.9
296.15 K, 26704 kPa	1185.6
296.15 K, 26711 kPa	1185.6
296.15 K, 26725 kPa	1185.8
297.15 K, 6213 kPa	1097.7
297.15 K, 6246 kPa	1097.7
297.15 K, 6292 kPa	1097.7
297.15 K, 27528 kPa	1185.5
297.15 K, 27534 kPa	1185.5
297.15 K, 27546 kPa	1185.6
298.15 K, 6841 kPa	1097.5
298.15 K, 6872 kPa	1097.5
298.15 K, 6917 kPa	1097.6
298.15 K, 28352 kPa	1185.4
298.15 K, 28357 kPa	1185.3
298.15 K, 28366 kPa	1185.5
299.15 K, 7469 kPa	1097.4
299.15 K, 7499 kPa	1097.4
299.15 K, 7541 kPa	1097.4
299.15 K, 29176 kPa	1185.2
299.15 K, 29179 kPa	1185.2
299.15 K, 29186 kPa	1185.4
300.15 K, 8097 kPa	1097.2
300.15 K, 8124 kPa	1097.2
300.15 K, 8166 kPa	1097.2
300.15 K, 29998 kPa	1185.1
300.15 K, 29999 kPa	1185.1
300.15 K, 30003 kPa	1185.2
301.15 K, 8725 kPa	1097.1
301.15 K, 8750 kPa	1097.1
301.15 K, 8791 kPa	1097.1
302.15 K, 9353 kPa	1096.9
302.15 K, 9377 kPa	1096.9
302.15 K, 9417 kPa	1096.9
303.15 K, 9980 kPa	1096.8
303.15 K, 10003 kPa	1096.8
303.15 K, 10042 kPa	1096.8
304.15 K, 10607 kPa	1096.6
304.15 K, 10629 kPa	1096.6
304.15 K, 10667 kPa	1096.7
305.15 K, 11234 kPa	1096.5
305.15 K, 11256 kPa	1096.5
305.15 K, 11292 kPa	1096.5
306.15 K, 11861 kPa	1096.4
306.15 K, 11881 kPa	1096.4
306.15 K, 11917 kPa	1096.4
307.15 K, 12487 kPa	1096.2
307.15 K, 12507 kPa	1096.2
307.15 K, 12541 kPa	1096.2
308.15 K, 13114 kPa	1096.1
308.15 K, 13133 kPa	1096.1
308.15 K, 13165 kPa	1096.1
309.15 K, 13740 kPa	1095.9
309.15 K, 13758 kPa	1095.9
309.15 K, 13790 kPa	1095.9
310.15 K, 14367 kPa	1095.8
310.15 K, 14384 kPa	1095.8
310.15 K, 14414 kPa	1095.8
311.15 K, 14992 kPa	1095.6
311.15 K, 15009 kPa	1095.7
311.15 K, 15038 kPa	1095.7
312.15 K, 15618 kPa	1095.5
312.15 K, 15634 kPa	1095.5
312.15 K, 15662 kPa	1095.5
313.15 K, 16243 kPa	1095.4
313.15 K, 16259 kPa	1095.4
313.15 K, 16286 kPa	1095.4
314.15 K, 16869 kPa	1095.2
314.15 K, 16883 kPa	1095.2
314.15 K, 16910 kPa	1095.3
315.15 K, 17493 kPa	1095.1
315.15 K, 17507 kPa	1095.1
315.15 K, 17534 kPa	1095.1
316.15 K, 18118 kPa	1095
316.15 K, 18131 kPa	1095
316.15 K, 18158 kPa	1095
317.15 K, 18743 kPa	1094.9
317.15 K, 18755 kPa	1094.9
317.15 K, 18781 kPa	1094.9
318.15 K, 19367 kPa	1094.7
318.15 K, 19379 kPa	1094.7
318.15 K, 19404 kPa	1094.8
319.15 K, 19990 kPa	1094.6
319.15 K, 20003 kPa	1094.6
319.15 K, 20027 kPa	1094.6
320.15 K, 20613 kPa	1094.5
320.15 K, 20627 kPa	1094.5
320.15 K, 20649 kPa	1094.5
321.15 K, 21236 kPa	1094.4
321.15 K, 21250 kPa	1094.4
321.15 K, 21272 kPa	1094.4
322.15 K, 21858 kPa	1094.2
322.15 K, 21873 kPa	1094.3
322.15 K, 21894 kPa	1094.3
323.15 K, 22480 kPa	1094.1
323.15 K, 22495 kPa	1094.1
323.15 K, 22516 kPa	1094.2
324.15 K, 23103 kPa	1094
324.15 K, 23117 kPa	1094
324.15 K, 23137 kPa	1094
325.15 K, 23725 kPa	1093.9
325.15 K, 23738 kPa	1093.9
325.15 K, 23758 kPa	1093.9
326.15 K, 24347 kPa	1093.8
326.15 K, 24361 kPa	1093.8
326.15 K, 24379 kPa	1093.8
327.15 K, 24970 kPa	1093.7
327.15 K, 24981 kPa	1093.7
327.15 K, 25000 kPa	1093.7
328.15 K, 25590 kPa	1093.6
328.15 K, 25601 kPa	1093.6
328.15 K, 25620 kPa	1093.6

From the NIST ThermoML archive (doi:10.1007/s10765-008-0535-5)
